1 molecule from patent publication US6946480B2, “Glutaminyl based DPIV inhibitors” (priority 2002, dated 2005) can be followed below.

The assay concerns the target T1, recombinant human prolyl oligopeptidase (POP) (Homo sapiens, UniProt P48147).
T1 construct: made in house; host or cells: E. coli
T1 sequence (P48147 1-710): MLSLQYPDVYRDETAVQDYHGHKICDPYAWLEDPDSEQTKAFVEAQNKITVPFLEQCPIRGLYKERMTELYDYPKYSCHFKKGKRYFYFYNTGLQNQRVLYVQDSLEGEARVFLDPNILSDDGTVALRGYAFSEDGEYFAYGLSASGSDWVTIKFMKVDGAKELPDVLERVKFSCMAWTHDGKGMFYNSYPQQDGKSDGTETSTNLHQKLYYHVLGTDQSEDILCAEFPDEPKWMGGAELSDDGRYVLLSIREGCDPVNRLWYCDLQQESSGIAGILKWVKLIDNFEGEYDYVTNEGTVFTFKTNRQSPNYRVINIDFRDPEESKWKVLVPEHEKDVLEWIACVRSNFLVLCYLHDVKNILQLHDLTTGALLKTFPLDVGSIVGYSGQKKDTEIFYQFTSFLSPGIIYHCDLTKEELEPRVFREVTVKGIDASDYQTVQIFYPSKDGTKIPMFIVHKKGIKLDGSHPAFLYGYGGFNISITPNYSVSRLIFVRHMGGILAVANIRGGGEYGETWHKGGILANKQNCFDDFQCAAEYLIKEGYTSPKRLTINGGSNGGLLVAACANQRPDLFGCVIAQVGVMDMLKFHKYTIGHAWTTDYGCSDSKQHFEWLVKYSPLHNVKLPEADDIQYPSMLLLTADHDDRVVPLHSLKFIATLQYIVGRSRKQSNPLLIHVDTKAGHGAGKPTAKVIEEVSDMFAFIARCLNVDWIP
Nature of the assay: Cross reacting enzymes - prolyl oligopeptidase. Format: biochemical. The settings on record: concentration range 1*10^−4 M-5*10^−8 M. The method, then:
Glutaminyl pyrrolidine or glutaminyl thiazolidine were tested for their cross reacting potency against dipeptidyl peptidase I, prolyl oligopeptidase and prolidase.
Substrates are peptides with a molecular weight up to 3000 Da.
The enzyme used was a recombinant human prolyl oligopeptidase. Recombinant expression was performed in E. coli under standard conditions as described elsewhere in the state of the art.
100 μl glutaminyl pyrrolidine or glutaminyl thiazolidine in an concentration range of 1*10^−4 M-5*10^−8 M were admixed with 100 μl μl buffer solution (40 mM HEPES, pH7.6, 0.015% Brij, 1 mM DTT) and 20 μl POP solution. The assay mixture was pre-incubated at 30° C. for 15 min After pre-incubation, 50 μl glycylprolylprolyl-4-nitroaniline solution (0.29 mM) were added and measurement of yellow color development due to 4-nitroaniline release was performed at 30° C. and λ=405 nm for 10 min using a plate reader (sunrise, Tecan, Crailsheim, Germany).
The IC50-values were calculated using Graphit 4.0.15 (Erithacus Software, Ltd., UK).

As for `NC(=O)CC[C@H](N)C(=O)N1CCCC1` [glutaminyl pyrrolidine], the “inhibition of POP activity” value is given as “no inhibition”.
